# Values joined by “and” are separate entries in the source; they are usually repeats but may differ in a detail not shown here. Equal values may be shown once. ± gives the expanded uncertainty stated by the source.
# Conditions: Crystal
smiles,measurement,setting,value
[Br][Ga]([Br])[Br] [gallium bromide],vapor or sublimation pressure,300 K,7.08e-05 ± 2.1e-05 kPa
same,vapor or sublimation pressure,302.5 K,6.31e-05 ± 1.9e-05 kPa and 9.55e-05 ± 2.9e-05 kPa
same,vapor or sublimation pressure,303 K,4.79e-05 ± 1.4e-05 kPa
same,vapor or sublimation pressure,304 K,7.24e-05 ± 2.2e-05 kPa
same,vapor or sublimation pressure,304.5 K,8.51e-05 ± 2.6e-05 kPa
same,vapor or sublimation pressure,305 K,7.24e-05 ± 2.2e-05 kPa
same,vapor or sublimation pressure,306.5 K,9.77e-05 ± 2.9e-05 kPa
same,vapor or sublimation pressure,307 K,0.000141 ± 4.2e-05 kPa and 9.77e-05 ± 2.9e-05 kPa
same,vapor or sublimation pressure,307.5 K,0.000126 ± 3.8e-05 kPa and 9.55e-05 ± 2.9e-05 kPa
same,vapor or sublimation pressure,308 K,0.000126 ± 3.8e-05 kPa
same,vapor or sublimation pressure,309.5 K,0.000145 ± 4.4e-05 kPa
same,vapor or sublimation pressure,310 K,0.00017 ± 5.1e-05 kPa and 0.000123 ± 3.7e-05 kPa
same,vapor or sublimation pressure,310.5 K,0.000141 ± 4.2e-05 kPa
same,vapor or sublimation pressure,311 K,0.00024 ± 7.2e-05 kPa
same,vapor or sublimation pressure,311.7 K,0.000263 ± 7.9e-05 kPa
same,vapor or sublimation pressure,312 K,0.000214 ± 6.4e-05 kPa
same,vapor or sublimation pressure,312.5 K,0.00017 ± 5.1e-05 kPa
same,vapor or sublimation pressure,313 K,0.000257 ± 7.7e-05 kPa [middle of 4 runs]
same,vapor or sublimation pressure,313.5 K,0.000219 ± 6.6e-05 kPa
same,vapor or sublimation pressure,314 K,0.00038 ± 0.00011 kPa
same,vapor or sublimation pressure,314.5 K,0.000339 ± 0.0001 kPa and 0.000219 ± 6.6e-05 kPa
same,vapor or sublimation pressure,315 K,0.000339 ± 0.0001 kPa [middle of 4 runs]
same,vapor or sublimation pressure,315.5 K,0.000263 ± 7.9e-05 kPa
same,vapor or sublimation pressure,316 K,0.00038 ± 0.00011 kPa and 0.000245 ± 7.4e-05 kPa
same,vapor or sublimation pressure,316.5 K,0.000288 ± 8.6e-05 kPa
same,vapor or sublimation pressure,317 K,0.000331 ± 9.9e-05 kPa and 0.000295 ± 8.9e-05 kPa
same,vapor or sublimation pressure,317.5 K,0.000525 ± 0.00016 kPa and 0.000339 ± 0.0001 kPa
same,vapor or sublimation pressure,318 K,0.00055 ± 0.00016 kPa
same,vapor or sublimation pressure,318.5 K,0.000513 ± 0.00015 kPa and 0.000339 ± 0.0001 kPa
same,vapor or sublimation pressure,319.5 K,0.000589 ± 0.00018 kPa [middle of 4 runs]
same,vapor or sublimation pressure,320 K,0.000617 ± 0.00018 kPa and 0.000363 ± 0.00011 kPa
same,vapor or sublimation pressure,321 K,0.000851 ± 0.00026 kPa and 0.000759 ± 0.00023 kPa
same,vapor or sublimation pressure,321.5 K,0.000575 ± 0.00017 kPa
same,vapor or sublimation pressure,322 K,0.000759 ± 0.00023 kPa and 0.000912 ± 0.00027 kPa and 0.000525 ± 0.00016 kPa
same,vapor or sublimation pressure,322.5 K,0.000891 ± 0.00027 kPa and 0.000589 ± 0.00018 kPa
same,vapor or sublimation pressure,323 K,0.0011 ± 0.00033 kPa and 0.000977 ± 0.00029 kPa and 0.000661 ± 0.0002 kPa
same,vapor or sublimation pressure,323.5 K,0.000724 ± 0.00022 kPa
same,vapor or sublimation pressure,324 K,0.0011 ± 0.00033 kPa [middle of 4 runs]
same,vapor or sublimation pressure,324.5 K,0.000708 ± 0.00021 kPa
same,vapor or sublimation pressure,325 K,0.00141 ± 0.00042 kPa and 0.000724 ± 0.00022 kPa
same,vapor or sublimation pressure,325.5 K,0.000813 ± 0.00024 kPa
same,vapor or sublimation pressure,326 K,0.00141 ± 0.00042 kPa and 0.000832 ± 0.00025 kPa
same,vapor or sublimation pressure,326.5 K,0.000955 ± 0.00029 kPa and 0.000832 ± 0.00025 kPa
same,vapor or sublimation pressure,327 K,0.00117 ± 0.00035 kPa and 0.000977 ± 0.00029 kPa
same,vapor or sublimation pressure,327.5 K,0.00151 ± 0.00045 kPa [middle of 4 runs]
same,vapor or sublimation pressure,328 K,0.00191 ± 0.00057 kPa and 0.00105 ± 0.00032 kPa
same,vapor or sublimation pressure,328.5 K,0.00178 ± 0.00053 kPa and 0.000977 ± 0.00029 kPa
same,vapor or sublimation pressure,329.5 K,0.00148 ± 0.00044 kPa and 0.00123 ± 0.00037 kPa
same,vapor or sublimation pressure,330 K,0.00251 ± 0.00075 kPa and 0.00141 ± 0.00042 kPa and 0.00158 ± 0.00047 kPa
same,vapor or sublimation pressure,331 K,0.00263 ± 0.00079 kPa and 0.00257 ± 0.00077 kPa
same,vapor or sublimation pressure,331.5 K,0.00204 ± 0.00061 kPa
same,vapor or sublimation pressure,332 K,0.00324 ± 0.00097 kPa and 0.00191 ± 0.00057 kPa
same,vapor or sublimation pressure,332.5 K,0.00174 ± 0.00052 kPa
same,vapor or sublimation pressure,333 K,0.00214 ± 0.00064 kPa [middle of 4 runs]
same,vapor or sublimation pressure,333.5 K,0.00331 ± 0.00099 kPa and 0.00204 ± 0.00061 kPa
same,vapor or sublimation pressure,334 K,0.00398 ± 0.0012 kPa and 0.00234 ± 0.0007 kPa
same,vapor or sublimation pressure,335 K,0.00437 ± 0.0013 kPa and 0.00417 ± 0.0013 kPa and 0.00191 ± 0.00057 kPa
same,vapor or sublimation pressure,335.5 K,0.00263 ± 0.00079 kPa
same,vapor or sublimation pressure,336 K,0.00324 ± 0.00097 kPa [middle of 4 runs]
same,vapor or sublimation pressure,337 K,0.00339 ± 0.001 kPa
same,vapor or sublimation pressure,338 K,0.0055 ± 0.0016 kPa and 0.00363 ± 0.0011 kPa and 0.00309 ± 0.00093 kPa
same,vapor or sublimation pressure,339.5 K,0.00525 ± 0.0016 kPa
same,vapor or sublimation pressure,340 K,0.00407 ± 0.0012 kPa and 0.00427 ± 0.0013 kPa and 0.00437 ± 0.0013 kPa
same,vapor or sublimation pressure,340.5 K,0.00437 ± 0.0013 kPa
same,vapor or sublimation pressure,341 K,0.00759 ± 0.0023 kPa and 0.00427 ± 0.0013 kPa
same,vapor or sublimation pressure,342 K,0.00501 ± 0.0015 kPa
same,vapor or sublimation pressure,343 K,0.00759 ± 0.0023 kPa and 0.00589 ± 0.0018 kPa
same,vapor or sublimation pressure,343.5 K,0.00603 ± 0.0018 kPa
same,vapor or sublimation pressure,344 K,0.00617 ± 0.0019 kPa
same,vapor or sublimation pressure,344.5 K,0.00708 ± 0.0021 kPa
same,vapor or sublimation pressure,345 K,0.00661 ± 0.002 kPa and 0.00676 ± 0.002 kPa
same,vapor or sublimation pressure,346 K,0.00794 ± 0.0024 kPa [middle of 4 runs]
same,vapor or sublimation pressure,346.5 K,0.00871 ± 0.0026 kPa
same,vapor or sublimation pressure,347 K,0.0135 ± 0.0041 kPa
same,vapor or sublimation pressure,348 K,0.00871 ± 0.0026 kPa and 0.00955 ± 0.0029 kPa
same,vapor or sublimation pressure,349 K,0.01 ± 0.003 kPa and 0.012 ± 0.0036 kPa and 0.0105 ± 0.0032 kPa
same,vapor or sublimation pressure,350.5 K,0.0115 ± 0.0035 kPa
same,vapor or sublimation pressure,351 K,0.0186 ± 0.0056 kPa and 0.0117 ± 0.0035 kPa
same,vapor or sublimation pressure,352 K,0.0145 ± 0.0044 kPa
same,vapor or sublimation pressure,354.5 K,0.0174 ± 0.0052 kPa
same,vapor or sublimation pressure,357 K,0.0195 ± 0.0059 kPa

# — the NIST ThermoML archive (doi:10.1021/je900182h)
